According to patent US20250170147A1, “NEUROACTIVE STEROIDS FOR TREATMENT OF GASTROINTESTINAL DISEASES OR CONDITIONS” (Sage Therapeutics, Inc., priority 2022, published 2025):
“Also recorded” adds a separate entry of the source. Marks after values point to notes of the source that are not given here.

What was measured:
[1] = system: patients with major depressive disorder; details: meta-analysis, cited from earlier work; for rates of gastrointestinal adverse reactions compared to placebo: 15 most commonly used antidepressants in MDD; for tolerability on the gastrointestinal tract among antidepressants: patients with MDD
[2] = clinical trials; meta-analysis; cited from earlier work
adults with MDD [3] = test: Study NCT04476030: withdrawal symptoms by Physician Withdrawal Checklist (PWC-20); assay type: in vivo, human
Experimental: (§1) A randomized, double-blind, parallel-group, active/placebo-controlled study (NCT04476030) in participants with major depressive disorder (MDD) was conducted. The study evaluated the efficacy and safety of zuranolone 50 mg co-initiated with standard-of-care (SOC) antidepressant therapies (ADTs) (zuranolone+ADT) vs placebo co-initiated with SOC ADT (placebo+ADT) in adults with MDD. Patients were randomized 1:1 to once-daily, blinded zuranolone+ADT or placebo+ADT for 14 days then continued open-label SOC ADT for 28 more days.
(§2) The proportion of patients who had suicidal ideation at any post baseline visit from Day 3 through Day 42 ranged from 4.8% to 11.7% in the zuranolone+ADT group and from 6.0% to 12.4% in the placebo+ADT group. No patients who received placebo+ADT experienced suicidal behavior.

adults with MDD [4] = test: Study NCT04476030: suicidal ideation/behavior by C-SSRS; assay type: in vivo, human; details: compared to baseline
Experimental: as §1, §2

adults with MDD [5] = test: Study NCT04476030: treatment-emergent adverse events (safety set); assay type: in vivo, human; details: for tolerability: zuranolone 50 mg once daily 14 days co-initiated with SOC ADT
Experimental: as §1
An AE could therefore be any unfavorable and unintended sign (including an abnormal laboratory finding), symptom or disease temporally associated with the use of a medicinal (investigational) product whether or not related to the medicinal (investigational) product. In clinical studies, an AE could include an undesirable medical condition occurring at any time, including baseline or washout periods, even if no study treatment had been administered.
A treatment emergent adverse event (TEAE) was defined as an AE with onset after the start of investigational product (IP), or any worsening of a pre-existing medical condition/AE with onset after the start of IP and throughout the study. The term IP included any Sage IP, a comparator, or a placebo administered in a clinical study.
The investigator made the determination of relationship to the IP for each AE (not related, related). The following definitions should have been considered when evaluating the relationship of AEs and SAEs to the IP.

[6] = ADT continuation period, of 212
[7] = double blinded treatment period
[8] = double blinded treatment period, of 212
[9] = safety set n=212, listed as zuranolone+ADT
[10] = zuranolone 50 mg + ADT, safety set n=212, whole study

## CNCCC(Oc1ccc(C(F)(F)F)cc1)c1ccccc1 (stereo not shown) [fluoxetine]
[1]
  rates of gastrointestinal adverse reactions compared to placebo: higher rates

## Fc1ccc([C@@H]2CCNC[C@H]2COc2ccc3c(c2)OCO3)cc1 [paroxetine]
[1]
  rates of gastrointestinal adverse reactions compared to placebo: higher rates

## COc1ccc(C(CN(C)C)C2(O)CCCCC2)cc1 (stereo not shown) [venlafaxine]
[1]
  rates of gastrointestinal adverse reactions compared to placebo: higher rates
[2]
  rates of nausea and vomiting compared to SSRIs and duloxetine: higher rates of nausea and vomiting

## COc1ccc2cccc(CCNC(C)=O)c2c1 [agomelatine]
[1]
  rates of gastrointestinal adverse reactions compared to placebo: higher rates

## CN(C)CCC[C@@]1(c2ccc(F)cc2)OCc2cc(C#N)ccc21 [escitalopram]
[1]
  rates of gastrointestinal adverse reactions compared to placebo: higher rates
  tolerability on the gastrointestinal tract among antidepressants: least tolerated

## CCN(CC)C(=O)[C@@]1(c2ccccc2)C[C@H]1CN [levomilnacipran]
[1]
  rates of gastrointestinal adverse reactions compared to placebo: higher rates

## Cc1ccc(Sc2ccccc2N2CCNCC2)c(C)c1 [vortioxetine]
[1]
  rates of gastrointestinal adverse reactions compared to placebo: higher rates

## CC(NC(C)(C)C)C(=O)c1cccc(Cl)c1 (stereo not shown) [bupropion]
[1]
  rates of gastrointestinal adverse reactions compared to placebo: higher rates

## CN1CCN2c3ncccc3Cc3ccccc3C2C1 (stereo not shown) [mirtazapine]
[1]
  rates of gastrointestinal adverse reactions compared to placebo: higher rates

## CN(C)CC(c1ccc(O)cc1)C1(O)CCCCC1 (stereo not shown) [desvenlafaxine]
[1]
  rates of gastrointestinal adverse reactions compared to placebo: higher rates

## COCCCC/C(=N\OCCN)c1ccc(C(F)(F)F)cc1 [fluvoxamine]
[1]
  rates of gastrointestinal adverse reactions compared to placebo: higher rates

## CNCC[C@H](Oc1cccc2ccccc12)c1cccs1 [duloxetine]
[1]
  rates of gastrointestinal adverse reactions compared to placebo: higher rates

## CCOc1ccccc1OC(c1ccccc1)C1CNCCO1 (stereo not shown) [reboxetine]
[1]
  rates of gastrointestinal adverse reactions compared to placebo: higher rates

## CN[C@H]1CC[C@@H](c2ccc(Cl)c(Cl)c2)c2ccccc21 [sertraline]
[1]
  rates of gastrointestinal adverse reactions compared to placebo: higher rates
  tolerability on the gastrointestinal tract among antidepressants: least tolerated
[2]
  incidence of diarrhea compared to other SSRIs and venlafaxine: higher incidence of diarrhea

## zuranolone [Zuranolone + ADT]
Adults with MDD [3]; Day 18
  mean decrease from baseline in PWC-20 total score: −0.6
Adults with MDD [3]; Day 21
  mean decrease from baseline in PWC-20 total score: −0.8
Adults with MDD [3]; after discontinuation
  withdrawal symptoms (PWC-20): No increases from baseline; also recorded: No signals for an evidence of withdrawal symptoms
Adults with MDD [4]
  suicidal ideation/behavior signals vs baseline (C-SSRS): No increases from baseline; also recorded: No signals for an increased suicidal ideation or suicidal behavior
Adults with MDD [5]; ADT continuation period
  Sexual Dysfunction TEAE, incidence: 0.9%
  Sleep Disorders TEAE, incidence: 3.8%
  TEAEs during the ADT continuation period, incidence: 31.6%
Adults with MDD [5]; [6]
  Sexual Dysfunction TEAE, number of patients: 2
  Sleep Disorders TEAE, number of patients: 8
  TEAEs during the ADT continuation period, number of patients: 67
Adults with MDD [5]; comparison with placebo+ADT
  incidence of gastrointestinal AEs (e.g., nausea, diarrhea) vs placebo+ADT: lower incidence
Adults with MDD [5]; [7]
  Sexual Dysfunction TEAE, incidence: 3.8%
  Sleep Disorders TEAE, incidence: 9.9%
Adults with MDD [5]; [8]
  Sexual Dysfunction TEAE, number of patients: 8
  Sleep Disorders TEAE, number of patients: 21
Adults with MDD [5]; double-blind treatment period
  TEAEs during the double-blind treatment period, incidence: 68.4%
Adults with MDD [5]; double-blind treatment period, of 212
  TEAEs during the double-blind treatment period, number of patients: 145
Adults with MDD [5]; safety set n=212
  Decreased Appetite TEAE, incidence: (5.7%)
  Decreased Appetite TEAE, number of patients: 12
  Diarrhea TEAE, incidence: (6.1%)
  Diarrhea TEAE, number of patients: 13
  Dizziness TEAE, number of patients: 28
  Dose reduction due to TEAE, incidence: (9.4%)
  Dose reduction due to TEAE, number of patients: 20
  Dry Mouth TEAE, incidence: (9.4%)
  Dry Mouth TEAE, number of patients: 20
  Fatigue TEAE, incidence: (8.5%)
  Fatigue TEAE, number of patients: 18
  Headache TEAE, number of patients: 25
  Insomnia TEAE, incidence: (9.9%)
  Insomnia TEAE, number of patients: 21
  Nausea TEAE, number of patients: 19
  Sedation TEAE, incidence: (5.7%)
  Sedation TEAE, number of patients: 12
  Serious AEs, incidence: (0.9%)^c
  Serious AEs, number of patients: 2
  Somnolence TEAE, number of patients: 39
  Study withdrawal due to TEAE, incidence: (5.2%)
  Study withdrawal due to TEAE, number of patients: 11
  TEAE maximum severity Mild, incidence: (35.8%)
  TEAE maximum severity Mild, number of patients: 76
  TEAE maximum severity Moderate, incidence: (34.4%)
  TEAE maximum severity Moderate, number of patients: 73
  TEAE maximum severity Severe, incidence: (3.8%)
  TEAE maximum severity Severe, number of patients: 8
  Treatment discontinuation due to TEAE, incidence: (6.6%)
  Treatment discontinuation due to TEAE, number of patients: 14
  Tremor TEAE, incidence: (5.2%)
  Tremor TEAE, number of patients: 11
Adults with MDD [5]; [9]
  Dizziness TEAE, incidence: 13.2%
  Headache TEAE, incidence: 14.7%
  Nausea TEAE, incidence: 9.0%
  Serious AEs, incidence: 0.9%
  Serious AEs, number of patients: Two
  Somnolence TEAE, incidence: 18.4%
Adults with MDD [5]; whole study
  Gastrointestinal disorder TEAE, incidence: 29.7%
  Sexual Dysfunction TEAE, incidence: 4.7%
  Sleep Disorders TEAE, incidence: 12.7%
Adults with MDD [5]; whole study, of 212
  Gastrointestinal disorder TEAE, number of patients: 63
  Sexual Dysfunction TEAE, number of patients: 10
  Sleep Disorders TEAE, number of patients: 27
Adults with MDD [5]; [10]
  Any TEAE, incidence: (74.1%)
  Any TEAE, number of patients: 157
Adults with MDD [5]; zuranolone 50 mg + ADT, safety set n=212, whole study, listed as zuranolone+ADT
  Any TEAE, incidence: 74.1%
Adults with MDD [5]
  tolerability: generally well-tolerated
Adults with MDD [5]; listed as zuranolone co-initiated with an SOC ADT
  tolerability: generally well tolerated

## CN(C)CCCC1(c2ccc(F)cc2)OCc2cc(C#N)ccc21 (stereo not shown) [citalopram]
[1]
  rates of gastrointestinal adverse reactions compared to placebo: higher rates
